Assay results as given in US20250326744A1, “PIPERAZINE DERIVATIVE OR SALT THEREOF, AND PHARMACEUTICAL COMPOSITION” (priority 2022, published 2025).
Counter-ions that a name gives are not always drawn.

Legend:
[1] = tested on: mexB (PA) strain; assay: Combinational effect with antibacterial agent against Pseudomonas aeruginosa (Test Examples 2 and 4): mexB (PA) strain with LVFX, TC or AZT at 1/4 MIC, EC99; assay type: cell-based; conditions: mexB (PA) strain, Test Example 4; for EC99, combinational effect with AZT, mexB (PA): combined with AZT at 1/4 MIC; for EC99, combinational effect with LVFX, mexB (PA): combined with LVFX at 1/4 MIC; for EC99, combinational effect with TC, mexB (PA): combined with TC at 1/4 MIC
Procedure, shortened: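 EC99 denotes the minimum test-compound concentration (range 0–800 μM) that suppresses ≥99% of growth, measured by OD595, when combined with ¼ MIC levofloxacin (LVFX), tetracycline or aztreonam. The efflux-pump mutant mexB (PA), expressing mainly MexAB-OprM, was inoculated at 10^4–5 CFU/well in CAMHB for 16–20 h.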

[2] = tested on: S-3769 strain; assay: Combinational effect with antibacterial agent against Pseudomonas aeruginosa (Test Examples 2 and 4): S-3769 strain with AMK or GM at 1/4 MIC, EC99; assay type: cell-based; conditions: S-3769 strain, Test Example 4; for EC99, combinational effect with AMK, S-3769 strain: combined with AMK at 1/4 MIC; for EC99, combinational effect with GM, S-3769 strain: combined with GM at 1/4 MIC
Procedure, shortened: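 EC99, the lowest test-compound concentration inhibiting growth by ≥99% (OD595), was measured with aminoglycoside AMK or GM held at ¼ MIC. Strain S-3769, a MexY-overexpressing clinical isolate, was cultured in CAMHB at 10^4 to 5 CFU/well for 16–20 h; compound range 0–800 μM.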

[3] = tested on: mexY (EC) strain; assay: Efflux ability inhibition effect on drug efflux pump MexY (Test Examples 1 and 3): proliferation (OD595) of mexY (EC) strain with EM or LVFX at 1/4 MIC, EC75; assay type: cell-based, Escherichia coli; conditions: Table 53, Test Example 3, same manner as Test Example 1; for EC75, mexY (EC) strain, EM: combined with EM at 1/4 MIC; for EC75, mexY (EC) strain, LVFX: combined with LVFX at 1/4 MIC
Method: The efflux ability inhibition effect of the test compound on the drug efflux pump was evaluated using the bacterial proliferative ability in the presence of EM or LVFX as an index.
EM is a macrolide antibacterial agent and is a drug that is discharged outside the bacteria by MexB and MexY LVFX is a quinolone antibacterial agent and is a drug that is discharged outside the bacteria by MexB and MexY In a case where the test compound has an efflux ability inhibitory ability against the drug efflux pump, the proliferation of bacteria is suppressed by the combined use of EM or LVFX and the test compound, as compared with the case where EM or LVFX is used alone.
A mutant strain (hereinafter, referred to as an “mexB (EC) strain”) obtained by transferring the genes of the main multidrug efflux system MexAB-OprM of Pseudomonas aeruginosa described in Nature, 2013, Vol. 500, pp. 102 to 106 as a plasmid into Escherichia coli strains in which the acrB and tolC genes of the multidrug efflux system AcrAB-TolC were deleted as described in Journal of Infection and Chemotherapy 2008, Vol. 14, pp. 23 to 29, and a gene transfer strain (hereinafter, referred to as an “mexY (EC) strain”) of another main multidrug efflux system MexXY-OprM of Pseudomonas aeruginosa were used for the evaluation of test compounds.
In the mexB (EC) strain, an expression level of MexB of the drug efflux pump is accelerated, and in the mexY (EC) strain, an expression level of MexY of the drug efflux pump is accelerated.
For culturing each Escherichia coli strain, a 96-well plate (amount of culture medium per well: 100 μL) was used and Luria-Bertani broth (LB) culture medium was used. The inoculation amount of the bacteria was set to 10^4 to 5 CFU/well.
The mexB (EC) strain and the mexY (EC) strain were cultured for 16 to 20 hours in a culture medium to which EM or LVFX and test compounds at various concentrations (0 to 800 μM) were added, and the proliferation of the bacterial strains was evaluated by optical turbidity at 595 nm (OD595). The concentration of the antibacterial agents (EM and LVFX) in the culture medium were each set to ¼ of the minimum inhibitory concentration (MIC) (hereinafter, referred to as ¼ MIC) of the single antibacterial agent.
The proliferation of bacteria in a case where the antibacterial agent was added at the concentration of ¼ MIC in a case where the test compound was not added was measured, and compared with the proliferation of bacteria in a case where the test compound was contained, and the lowest concentration of the test compound at which the proliferation was inhibited by 75% or more was defined as the drug efflux pump inhibitory ability of the test compound as 75% inhibitory effect concentration (EC75).
The drug efflux pump inhibitory ability of each test compound in a case of being used in combination with the antibacterial agent against the mexB (EC) strain and the mexY (EC) strain was evaluated as follows according to the value of EC75. • S: EC75≤[…] • A: 12.5 μM<EC75≤25 μM • B: 25 μM<EC75≤100 μM • C: […]
In the same manner as in Test Example 1, the efflux ability inhibition effect of the test compound on the drug efflux pump was evaluated using the bacterial proliferation ability in the presence of EM or LVFX as an index.

| Structure (SMILES) | EC99, combinational effect with AZT, mexB (PA) [1] | EC99, combinational effect with LVFX, mexB (PA) [1] | EC99, combinational effect with TC, mexB (PA) [1] | EC99, combinational effect with AMK, S-3769 strain [2] | EC99, combinational effect with GM, S-3769 strain [2] | EC75, mexY (EC) strain, EM [3] | EC75, mexY (EC) strain, LVFX [3] |
| --- | --- | --- | --- | --- | --- | --- | --- |
| CSc1ccccc1CN1CCN(C(=O)[C@H](N)C2CCN(CCc3cc(Cl)ccc3-c3cccc(Cl)c3)CC2)CC1 [Example 552, Hydrobromide of (R)-2-amino-2-(1-(2-(3′,4-dichloro-[1,1-biphenyl]-2-yl)ethyl)piperidin-4-yl)-1-(4-(2-(methylthio)benzyl)piperazin-1-yl)ethan-1-one] | S (EC99≤12.5 μM) | S (EC99≤12.5 μM) | S (EC99≤12.5 μM) | B (25 μM<EC99≤100 μM) | S (EC99≤12.5 μM) | A (12.5 μM<EC75≤25 μM) | A (12.5 μM<EC75≤25 μM) |
| CSc1ccccc1CN1CCN(C(=O)[C@H](N)C2CCN(CCc3cc(Cl)ccc3-c3ccccc3Cl)CC2)CC1 [Example 555, Hydrobromide of (R)-2-amino-2-(1-(2-(2′,4-dichloro-[1,1-biphenyl]-2-yl)ethyl)piperidin-4-yl)-1-(4-(2-(methylthio)benzyl)piperazin-1-yl)ethan-1-one] | B (25 μM<EC99≤100 μM) | B (25 μM<EC99≤100 μM) | A (12.5 μM<EC99≤25 μM) | B (25 μM<EC99≤100 μM) | B (25 μM<EC99≤100 μM) | A (12.5 μM<EC75≤25 μM) | A (12.5 μM<EC75≤25 μM) |
| CCOc1cccc(F)c1CN1CCN(C(=O)[C@H](N)C2CC[N+](CCc3cc(Cl)ccc3-c3ccccc3)(CC(=O)[O-])CC2)CC1 (stereo partly drawn) [Example 567, Hydrobromide of (R)-2-(4-(1-amino-2-(4-(2-ethoxy-6-fluorobenzyl)piperazin-1-yl)-2-oxoethyl)-1-(2-(4-chloro-[1,1-biphenyl]-2-yl)ethyl)piperidin-4-ium-1-yl)acetate] | C (100 μM<EC99) | C (100 μM<EC99) | C (100 μM<EC99) | B (25 μM<EC99≤100 μM) | C (100 μM<EC99) | B (25 μM<EC75≤100 μM) | B (25 μM<EC75≤100 μM) |
| CCOc1cccc(F)c1CN1CCN(C(=O)[C@H](N)C2CCN(CCc3cc(Cl)ccc3-c3c[nH]ccc3=O)CC2)CC1 [Example 577, Hydrochloride of (R)-3-(2-(2-(4-(1-amino-2-(4-(2-ethoxy-6-fluorobenzyl)piperazin-1-yl)-2-oxoethyl)piperidin-1-yl)ethyl)-4-chlorophenyl)pyridine-4(1H)-one] | B (25 μM<EC99≤100 μM) | B (25 μM<EC99≤100 μM) | B (25 μM<EC99≤100 μM) | C (100 μM<EC99) | C (100 μM<EC99) | – | A (12.5 μM<EC75≤25 μM) |
| CCSc1cc(F)ccc1CN1CCN(C(=O)[C@H](N)C2CCN(CCc3cc(Cl)ccc3-c3ccccc3Cl)CC2)CC1 [Example 599, Hydrochloride of (R)-2-amino-2-(1-(2-(2′,4-dichloro-[1,1-biphenyl]-2-yl)ethyl)piperidin-4-yl)-1-(4-(2-(ethylthio)-4-fluorobenzyl)piperazin-1-yl)ethan-1-one] | S (EC99≤12.5 μM) | S (EC99≤12.5 μM) | S (EC99≤12.5 μM) | B (25 μM<EC99≤100 μM) | S (EC99≤12.5 μM) | A (12.5 μM<EC75≤25 μM) | – |
